According to patent publication US20240150293A1, “SPIROCYCLOHEXANE DERIVATIVES, PHARMACEUTICAL COMPOSITIONS CONTAINING THEM AND THEIR USES AS ANTI-APOPTOTIC INHIBITORS” (LES LABORATOIRES SERVIER, priority 2021, published 2024):
Where two headings read alike, the source gives them in different places.

Columns and labels:
Mcl-1 protein = Mcl-1 protein (UniProtKB Q07820) (Homo sapiens (Human), UniProt Q07820); assay: Inhibition of Mcl-1 by the fluorescence polarisation assay (Example A, Method A); format: binding; details: fluorescence polarization assay
Mcl-1 protein, sequence (Q07820 whole entry): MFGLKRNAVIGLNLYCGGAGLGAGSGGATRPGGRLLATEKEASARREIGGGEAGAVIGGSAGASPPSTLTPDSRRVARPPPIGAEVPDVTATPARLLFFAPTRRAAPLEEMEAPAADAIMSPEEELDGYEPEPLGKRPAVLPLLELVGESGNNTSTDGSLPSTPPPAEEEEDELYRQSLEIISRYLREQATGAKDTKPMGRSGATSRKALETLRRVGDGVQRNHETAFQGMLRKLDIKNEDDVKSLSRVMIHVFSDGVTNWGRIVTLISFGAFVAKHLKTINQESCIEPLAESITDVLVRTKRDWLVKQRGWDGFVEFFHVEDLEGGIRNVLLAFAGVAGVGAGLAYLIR
Summary of the method: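 Protein (5 nM) and fluorescein-tagged peptide tracer (1 nM) incubated with 11-point compound series for 2 h at room temperature in HEPES/NaCl/Tween 20 buffer, pH 7.4, 5% DMSO. Displacement read as decrease in polarisation; IC50 fitted by 4-parameter logistic, converted to Ki (cKi or eKi).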

[1] = test system: H929 multiple myeloma tumor line; assay: In vitro cytotoxicity, MTT assay (Example B, Method A); format: cell-based; details: H929 cells, 48 hours exposure, read-out: C50
Procedure: The cytotoxicity studies were carried out on the H929 multiple myeloma tumor line.
The cells are distributed onto microplates and exposed to the test compounds for 48 hours. The cell viability is then quantified by a colorimetric assay, the Microculture Tetrazolium Assay (Carmichael et al, Cancer Res. 1987, 47, 939-942).
The results are expressed in C50 which means concentration corresponding to […] of effect/inhibition.

Row | Compound | Ki (Mcl-1 protein) [µM] | IC50 ([1]; Homo sapiens, NCI-H929, 48 h) [µM] | IC50 [1] [µM]
1 | O=C(O)[C@]1(Nc2cccc(Cl)c2)CC[C@@]2(CC1)c1ccccc1CN2CCCOc1ccccc1 [Example 35, (1s,4s)-4-(3-chloroanilino)-2′-(3-phenoxypropyl)-2′,3′-dihydrospiro[cyclohexane-1,1′-isoindole]-4-carboxylic acid] | 0.332 | 30 | 
2 | O=C(O)[C@]1(Nc2cccc(Cl)c2)CC[C@@]2(CC1)c1ccccc1C[C@@H]2C[C@@H](COc1ccccc1)c1ccccc1 [Example 556, (1r,2′S,4S)-4-(3-chloroanilino)-2′-[(2R)-3-phenoxy-2-phenylpropyl]-2′,3′-dihydrospiro[cyclohexane-1,1′-indene]-4-carboxylic acid] | 7.19 | 19.3 | 
3 | Cc1cccc(C2Cc3ccccc3[C@]23CC[C@@](Nc2cccc(Cl)c2)(C(=O)O)CC3)c1 (single isomer, unassigned) [Example 346, (1r,4r)-4-(3-chloroanilino)-2′-(3-methylphenyl)-2′,3′-dihydrospiro[cyclohexane-1,1′-indene]-4-carboxylic acid] | 9.29 |  | 30
4 | O=C(O)[C@]1(Nc2cccc(Cl)c2)CC[C@]2(CC1)C(CCCOc1ccnc3ccsc13)=Cc1ccccc12 [Example 442, (1r,4r)-4-(3-chloroanilino)-2′-{3-[(thieno[3,2-b]pyridin-7-yl)oxy]propyl}spiro[cyclohexane-1,1′-indene]-4-carboxylic acid] | 0.107 | 5.79 | 
5 | O=C(O)[C@]1(Nc2cccc(Cl)c2)CC[C@@]2(CC1)c1ccccc1C[C@H]2c1ccc(Oc2ccccc2)cc1 [Example 358, (1r,2′S,4S)-4-(3-chloroanilino)-2′-(4-phenoxyphenyl)-2′,3′-dihydrospiro[cyclohexane-1,1′-indene]-4-carboxylic acid] | 0.0622 | 7.43 | 
6 | C[C@@H](COc1ccnc2sccc12)C[C@H]1Cc2ccccc2[C@]12CC[C@@](Nc1cccc(Cl)c1)(C(=O)O)CC2 [Example 604, (1r,2′S,4S)-4-(3-chloroanilino)-2′-{(2R)-2-methyl-3-[(thieno[2,3-b]pyridin-4-yl)oxy]propyl}-2′,3′-dihydrospiro[cyclohexane-1,1′-indene]-4-carboxylic acid] | 0.03 | 0.694 | 
7 | O=C(O)[C@]1(Nc2cccc(Cl)c2)CC[C@@]2(CC1)c1ccccc1CC2CCCOc1ccnc2[nH]ccc12 (stereo partly drawn) [Example 445, (1r,4r)-4-(3-chloroanilino)-2′-{3-[(1H-pyrrolo[2,3-b]pyridin-4-yl)oxy]propyl}-2′,3′-dihydrospiro[cyclohexane-1,1′-indene]-4-carboxylic acid] | 0.0753 | 5.35 | 
8 | O=C(O)[C@]1(Nc2cccc(Cl)c2)CC[C@@]2(CC1)c1ccccc1C[C@H]2c1cc2ccccc2o1 [Example 337, (1r,2′R,4R)-2′-(1-benzofuran-2-yl)-4-(3-chloroanilino)-2′,3′-dihydrospiro[cyclohexane-1,1′-indene]-4-carboxylic acid] | 0.247 | 30 | 
9 | Cc1c[nH]c2cccc(OCCC[C@H]3Cc4ccccc4[C@]34CC[C@@](Nc3cccc(Cl)c3)(C(=O)O)CC4)c12 [Example 484, (1r,2′S,4S)-4-(3-chloroanilino)-2′-{3-[(3-methyl-1H-indol-4-yl)oxy]propyl}-2′,3′-dihydrospiro[cyclohexane-1,1′-indene]-4-carboxylic acid] | 0.759 | 9.64 | 
10 | CC(C)C(COc1ccccc1)CC1Cc2ccccc2[C@]12CC[C@@](Nc1cccc(Cl)c1)(C(=O)O)CC2 (single isomer, unassigned) [Example 530, (1r,4r)-4-(3-chloroanilino)-2′-[3-methyl-2-(phenoxymethyl)butyl]-2′,3′-dihydrospiro[cyclohexane-1,1′-indene]-4-carboxylic acid] | 2.05 | 15.3 | 
11 | CC(C)C(COc1cccnc1)CC1Cc2ccccc2[C@]12CC[C@@](Nc1cccc(Cl)c1)(C(=O)O)CC2 (single isomer, unassigned) [Example 527, (1r,4r)-4-(3-chloroanilino)-2′-(3-methyl-2-{[(pyridin-3-yl)oxy]methyl}butyl)-2′,3′-dihydrospiro[cyclohexane-1,1′-indene]-4-carboxylic acid] | 8.94 |  | 16.4
12 | CC(C)C(COc1ccccc1)CC1Cc2ccccc2[C@]12CC[C@@](Nc1cccc(Cl)c1)(C(=O)O)CC2 (single isomer, unassigned) [Example 531, (1r,4r)-4-(3-chloroanilino)-2′-[3-methyl-2-(phenoxymethyl)butyl]-2′,3′-dihydrospiro[cyclohexane-1,1′-indene]-4-carboxylic acid] | 5.97 |  | 15.9
13 | O=C(O)[C@]1(Nc2cccc(Cl)c2)CC[C@@]2(CC1)c1ccccc1C[C@@H]2C[C@@H](COc1ccnc2ccsc12)c1ccccc1 [Example 545, (1r,2′S,4S)-4-(3-chloroanilino)-2′-{(2R)-2-phenyl-3-[(thieno[3,2-b]pyridin-7-yl)oxy]propyl}-2′,3′-dihydrospiro[cyclohexane-1,1′-indene]-4-carboxylic acid] | 3.49 | 8.92 | 
14 | O=C(O)[C@]1(Nc2cccc(Cl)c2)CC[C@]2(CC1)C(CCOc1ccnc(F)c1)=Cc1ccccc12 [Example 191, (1r,4r)-4-(3-chloroanilino)-2′-{2-[(2-fluoropyridin-4-yl)oxy]ethyl}spiro[cyclohexane-1,1′-indene]-4-carboxylic acid] | 0.0697 | 5.72 | 
15 | O=C(O)[C@]1(Nc2cccc(Cl)c2)CC[C@@]2(CC1)c1ccccc1C[C@H]2C[C@@H](COc1cccnc1)c1ccccc1 [Example 549, (1r,2′R,4R)-4-(3-chloroanilino)-2′-{(2R)-2-phenyl-3-[(pyridin-3-yl)oxy]propyl}-2′,3′-dihydrospiro[cyclohexane-1,1′-indene]-4-carboxylic acid] | 9.48 | 17.9 | 
16 | O=C(O)[C@]1(Nc2cccc(Cl)c2)CC[C@@]2(CC1)c1ccccc1CC2CCCOc1ccnc(F)c1 (mixture of isomers) [Example 427, (1r,4r)-4-(3-chloroanilino)-2′-{3-[(2-fluoropyridin-4-yl)oxy]propyl}-2′,3′-dihydrospiro[cyclohexane-1,1′-indene]-4-carboxylic acid] | 0.226 | 17.4 | 
17 | Cc1cc2c(OCCC[C@@H]3Cc4ccccc4[C@]34CC[C@@](Nc3cccc(Cl)c3)(C(=O)O)CC4)cccc2[nH]1 [Example 481, (1r,2′R,4R)-4-(3-chloroanilino)-2′-{3-[(2-methyl-1H-indol-4-yl)oxy]propyl}-2′,3′-dihydrospiro[cyclohexane-1,1′-indene]-4-carboxylic acid] | 0.0721 | 5.08 | 
18 | O=C(O)[C@]1(Nc2cccc(Cl)c2)CC[C@@]2(CC1)c1ccccc1CC2CCCOc1ccncc1 (stereo partly drawn) [Example 426, (1r,4r)-4-(3-chloroanilino)-2′-{3-[(pyridin-4-yl)oxy]propyl}-2′,3′-dihydrospiro[cyclohexane-1,1′-indene]-4-carboxylic acid] | 0.0553 | 16.5 | 
19 | CC(C)C(COc1ccnc2ccsc12)CC1Cc2ccccc2[C@]12CC[C@@](Nc1cccc(Cl)c1)(C(=O)O)CC2 (single isomer, unassigned) [Example 522, (1r,4r)-4-(3-chloroanilino)-2′-(3-methyl-2-{[(thieno[3,2-b]pyridin-7-yl)oxy]methyl}butyl)-2′,3′-dihydrospiro[cyclohexane-1,1′-indene]-4-carboxylic acid] | 6.36 | 17.1 | 
20 | O=C(O)[C@]1(Nc2cccc(Cl)c2)CC[C@@]2(CC1)c1ccccc1C[C@H]2C[C@@H](COc1ccncc1)c1ccccc1 [Example 553, (1r,2′R,4R)-4-(3-chloroanilino)-2′-{(2R)-2-phenyl-3-[(pyridin-4-yl)oxy]propyl}-2′,3′-dihydrospiro[cyclohexane-1,1′-indene]-4-carboxylic acid] | 5.64 | 17.5 | 
21 | C[C@H]1Cc2ccccc2[C@]12CC[C@@](Nc1cccc(Br)c1)(C(=O)O)CC2 [Example 145, (1r,2′S,4S)-4-(3-bromoanilino)-2′-methyl-2′,3′-dihydrospiro[cyclohexane-1,1′-indene]-4-carboxylic acid] | 0.414 | 30 | 
22 | O=C(O)[C@]1(Nc2cccc(Cl)c2)CC[C@@]2(CC1)c1ccccc1C[C@H]2C[C@H](COc1ccnc2ccsc12)c1ccccc1 [Example 546, (1r,2′R,4R)-4-(3-chloroanilino)-2′-{(2S)-2-phenyl-3-[(thieno[3,2-b]pyridin-7-yl)oxy]propyl}-2′,3′-dihydrospiro[cyclohexane-1,1′-indene]-4-carboxylic acid] | 1.64 | 30 | 
23 | CCOc1ccc2c(c1)[C@]1(CC[C@@](Nc3cccc(Cl)c3)(C(=O)O)CC1)C(c1cccc(Oc3ccccc3)c1)C2 (single isomer, unassigned) [Example 386, (1r,4r)-4-(3-chloroanilino)-6′-ethoxy-2′-(3-phenoxyphenyl)-2′,3′-dihydrospiro[cyclohexane-1,18′-indene]-4-carboxylic acid] | 0.161 | 7.92 | 
24 | C[C@@H](COc1ccnc2c1CCCCC2)C[C@H]1Cc2ccccc2[C@]12CC[C@@](Nc1cccc(Cl)c1)(C(=O)O)CC2 [Example 633, (1r,2′S,4S)-4-(3-chloroanilino)-2′-{(2R)-2-methyl-3-[(6,7,8,9-tetrahydro-5H-cyclohepta[b]pyridin-4-yl)oxy]propyl}-2′,3′-dihydrospiro[cyclohexane-1,1′-indene]-4-carboxylic acid] | 0.0053 | 0.371 | 
